Test systems include HCT-116 colon; LOX IMVI melanoma; OVCAR-3 ovarian; SF-268 CNS; SK-MEL-5 melanoma; SNB-19 CNS; TK-10 renal; U251 CNS; UACC-257 melanoma; KM12 colon.
Common to all, as to assay: DTP human tumour cell line panel, 48 h

The term TGI denotes the concentration giving total growth inhibition.

Molecules are shown by their SMILES.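 Following 48 hours of exposure in 96-well plates, responses at five concentrations were used to interpolate endpoints linearly. TGI denotes the concentration required for complete inhibition of growth.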

As to `Cc1ccc(SCC(CSCCO)OCn2cnc3c2NC(N)=NC32OCCO2)cc1` (centres undefined), the concentration for total growth inhibition (TGI) in the assay with HCT-116 colon, with LOX IMVI melanoma, in the assay with OVCAR-3 ovarian, in the assay on SF-268 CNS, with SK-MEL-5 melanoma and in the assay with SNB-19 CNS was greater than 100 µM throughout. The TGI in the assay with TK-10 renal, with U251 CNS and with UACC-257 melanoma was greater than 100 µM in each case.
In the case of `Cc1cccc(/C=N/NC(=S)Nc2ccccc2)n1`, the concentration for total growth inhibition (TGI) was greater than 100 µM in the assay with KM12 colon; 21.4 µM with LOX IMVI melanoma; 13.6 µM in the assay with OVCAR-3 ovarian; greater than 100 µM in the assay with SF-268 CNS; greater than 22.5 µM in the assay with SK-MEL-5 melanoma; 98.3 µM in the assay with SNB-19 CNS. Besides, the total growth inhibition concentration (TGI) with TK-10 renal is greater than 95.3 µM; in the assay with U251 CNS, greater than 54.9 µM; with UACC-257 melanoma it was 8.1 µM.
Consider `CCCN=C1CCN(Cc2ccccc2)c2ccccc2N1`, for which the TGI in the assay on HCT-116 colon is greater than 100 µM; in the assay on KM12 colon it was 64.6 µM; in the assay with OVCAR-3 ovarian it was greater than 100 µM; with SF-268 CNS, 36.8 µM; with SK-MEL-5 melanoma it was 28.2 µM; in the assay on SNB-19 CNS, greater than 100 µM. Also, the figures for the TGI in the assay on TK-10 renal, with U251 CNS and in the assay on UACC-257 melanoma were greater than 100 µM, 43.6 µM and 29.2 µM, respectively.
As for `CC(C)CCCCCCCCCCCCC(=O)NCC(=O)NC1C(C)OC(Nc2ncnc3c2ncn3C)C(O)C1O` (centres undefined), the TGI was greater than 100 µM in the assay with KM12 colon; greater than 100 µM in the assay with LOX IMVI melanoma; greater than 100 µM in the assay on OVCAR-3 ovarian; greater than 100 µM in the assay on SF-268 CNS; greater than 100 µM in the assay on SK-MEL-5 melanoma; greater than 31 µM in the assay with SNB-19 CNS. The TGI with U251 CNS was 11.3 µM; in the assay with UACC-257 melanoma it was greater than 100 µM.
As for `CC(N)Cc1ccc(C(=O)Cl)cc1` (centres undefined), the TGI with HCT-116 colon, in the assay on KM12 colon, with LOX IMVI melanoma, with OVCAR-3 ovarian, in the assay on SF-268 CNS and in the assay on SK-MEL-5 melanoma was greater than 100 µM throughout. The TGI with TK-10 renal, with U251 CNS and with UACC-257 melanoma was greater than 100 µM throughout.
Take `CCC1(O)CC2CC(=O)OC2C1O` (centres undefined): the TGI with KM12 colon, in the assay with LOX IMVI melanoma, with OVCAR-3 ovarian, with SF-268 CNS, with SK-MEL-5 melanoma and with SNB-19 CNS was greater than 100 µM each time. Besides, the TGI in the assay on TK-10 renal, in the assay with U251 CNS and in the assay with UACC-257 melanoma was greater than 100 µM throughout.
With `Cc1cn(C2CC(N(O)C(N)=O)C(CO)O2)c(=O)[nH]c1=O` (centres undefined), the TGI in the assay with HCT-116 colon, in the assay with KM12 colon, in the assay on OVCAR-3 ovarian, with SF-268 CNS, with SK-MEL-5 melanoma and in the assay with SNB-19 CNS was greater than 100 µM throughout. Also, the TGI with TK-10 renal and in the assay with U251 CNS was greater than 100 µM throughout.
In the case of `NC(=O)C(c1ccccc1)N1OC2C(=O)N(c3ccccc3)C(=O)C2C1c1c2ccccc2c(Cl)c2ccccc12` (centres undefined), the TGI in the assay with HCT-116 colon, in the assay on KM12 colon, in the assay with LOX IMVI melanoma, in the assay on OVCAR-3 ovarian, in the assay with SF-268 CNS and in the assay on SK-MEL-5 melanoma was greater than 100 µM throughout. Besides, the TGI in the assay with SNB-19 CNS and with U251 CNS was greater than 100 µM each time.
For the compound `O=C(Cc1cccs1)N[C@@H]1C(=O)N2C(C(=O)OC(c3ccccc3)c3ccccc3)=C(CO)CS[C@H]12`, the TGI in the assay on HCT-116 colon, in the assay with KM12 colon, with LOX IMVI melanoma, in the assay with OVCAR-3 ovarian, in the assay with SK-MEL-5 melanoma and in the assay on TK-10 renal was greater than 100 µM throughout. In addition, the TGI with U251 CNS and in the assay on UACC-257 melanoma was greater than 100 µM in each case.
Take `COC(=O)[C@H]1CO[C@@H](C(C)(C)C)N1C(=O)N1C=CC(=O)C[C@@H]1C`: the TGI with HCT-116 colon, in the assay with KM12 colon, in the assay with LOX IMVI melanoma, with OVCAR-3 ovarian, with SF-268 CNS and in the assay on SK-MEL-5 melanoma was greater than 100 µM in each case. Moreover, the TGI in the assay with TK-10 renal, in the assay on U251 CNS and in the assay on UACC-257 melanoma was greater than 100 µM throughout.
For `CC[C@@]1(O)C(=O)OCc2c1cc1n(c2=O)Cc2c-1nc1ccccc1c2/C=N\NC(=O)CN`, the TGI with HCT-116 colon is 16.1 µM; in the assay with KM12 colon it was greater than 100 µM; in the assay with LOX IMVI melanoma it was 1.36 µM; with OVCAR-3 ovarian, greater than 91 µM; with SF-268 CNS, 16.7 µM; in the assay with SK-MEL-5 melanoma it was 1.88 µM. Moreover, the total growth inhibition concentration (TGI) in the assay with TK-10 renal is greater than 100 µM; in the assay with U251 CNS it was greater than 61.5 µM; in the assay with UACC-257 melanoma, greater than 60.8 µM.
On to `COC(=O)[C@H](Cc1c[nH]c2ccccc12)NP(=O)(O)OCC1C=CC(n2cc(C)c(=O)[nH]c2=O)O1` (some centres undefined), for which the TGI in the assay on HCT-116 colon, in the assay with KM12 colon, in the assay on LOX IMVI melanoma, in the assay on OVCAR-3 ovarian, in the assay with SF-268 CNS and in the assay with SK-MEL-5 melanoma was greater than 100 µM in each case. The TGI in the assay on SNB-19 CNS and in the assay on U251 CNS was greater than 100 µM throughout.
With `Cc1cc(N(CCC#N)CCC#N)ccc1/C(N=Nc1ccc(Cl)cc1)=N\NC(=O)c1ccccc1`, the TGI in the assay on HCT-116 colon, in the assay on KM12 colon, in the assay on OVCAR-3 ovarian, with SF-268 CNS, in the assay with SK-MEL-5 melanoma and in the assay with SNB-19 CNS was greater than 100 µM in each case. In addition, the TGI in the assay on TK-10 renal, in the assay with U251 CNS and with UACC-257 melanoma was greater than 100 µM throughout.
As for `FC(F)(F)c1cc(Cl)cnc1N/N=C(/c1ccccc1)c1ccccn1`, the total growth inhibition concentration (TGI) in the assay with HCT-116 colon was 19.2 µM; with KM12 colon, 30.1 µM; with OVCAR-3 ovarian it was 12.7 µM; in the assay with SF-268 CNS it was 11.3 µM; in the assay on SK-MEL-5 melanoma it was greater than 100 µM; with SNB-19 CNS it was greater than 100 µM. The TGI with U251 CNS came to 41.3 µM; in the assay on UACC-257 melanoma it was 16.5 µM.
On to `CC(=O)Nc1ccc(-c2nnc(SCC(=O)Nc3ccc([N+](=O)[O-])cc3)o2)cc1`, for which the TGI stood at 25 µM in the assay on HCT-116 colon; 27.7 µM in the assay with KM12 colon; 18.1 µM in the assay on LOX IMVI melanoma; 28.1 µM in the assay with OVCAR-3 ovarian; 27.7 µM in the assay on SF-268 CNS; 25.9 µM with SK-MEL-5 melanoma. Further, the TGI was found to be 27.9 µM in the assay on TK-10 renal, 28 µM in the assay with U251 CNS and 24.7 µM with UACC-257 melanoma.

The values above are taken from PubChem BioAssay (NCI).
